Source: patent US20230053493A1, “ONE STEP METHODS, KITS, AND SYSTEMS FOR THE MEASUREMENT OF CONCENTRATIONS OF UNBOUND BILIRUBIN IN BIOLOGICAL FLUIDS” (priority 2019, published 2023)

Assays:
[1] = target: T1, Albumin (Homo sapiens, UniProt P02768); details: cefazolin 3.76 mM
[2] = target: T1, Albumin; assay: Drug displacement of bilirubin from albumin / interference, Bf measured with one-step cartridges; assay type: in vitro ADME; details: percent increase of Bf for the 3x drug concentration relative to no drug; negative value = interference with the Bf sensor
Source text: Premature infants who are at high risk for bilirubin neurotoxicity are of particular concern because NICU infants frequently receive medications. [Hsieh et al. Medication use in the neonatal intensive care unit. Am J Perinatol.

[3] = target: adult human albumin (Homo sapiens, UniProt P02768); details: high affinity site; read-out: equilibrium dissociation constant (Kd) of bilirubin for adult human albumin; cited from earlier work
Sequence of adult human albumin (P02768 25-609): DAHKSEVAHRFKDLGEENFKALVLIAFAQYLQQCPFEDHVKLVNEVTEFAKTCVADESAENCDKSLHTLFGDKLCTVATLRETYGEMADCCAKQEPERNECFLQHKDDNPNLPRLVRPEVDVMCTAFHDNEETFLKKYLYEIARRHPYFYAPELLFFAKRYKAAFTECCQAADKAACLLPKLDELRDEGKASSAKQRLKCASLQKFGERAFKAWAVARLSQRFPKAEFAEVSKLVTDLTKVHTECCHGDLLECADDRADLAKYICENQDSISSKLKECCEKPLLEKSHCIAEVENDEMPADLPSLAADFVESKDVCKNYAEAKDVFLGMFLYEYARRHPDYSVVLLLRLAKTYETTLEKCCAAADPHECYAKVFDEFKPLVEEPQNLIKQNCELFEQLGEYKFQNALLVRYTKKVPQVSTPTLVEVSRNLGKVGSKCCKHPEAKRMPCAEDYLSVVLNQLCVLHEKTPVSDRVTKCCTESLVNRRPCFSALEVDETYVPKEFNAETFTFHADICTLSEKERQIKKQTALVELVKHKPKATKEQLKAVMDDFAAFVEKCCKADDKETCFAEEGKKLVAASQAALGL

[4] = Interference of conjugated bilirubin (ditaurobilirubin) with Bf measurement, UBCheck vs Arrows UA-2; design: species or system human
Description: The potential interference of conjugated bilirubin with the bilirubin probes is determined by measuring the effect of ditaurobilirubin on the ability of the UBCheck to measure Bf accurately. We also compared the UBCheck results with measurements using the Arrows UB analyzer UA-2 method. The measurements are performed by spiking neonatal serum with unconjugated bilirubin to yield a Bf of approximately 10 nM and then titrating the spiked sample with ditaurobilirubin up to 20 mg/dl (FIG. 7). At each step Bf is measured by UBCheck and Arrows and the direct (conjugated) bilirubin concentration is determined using a Sigma direct bilirubin kit. At zero ditaurobilirubin both UBCheck and Arrows yield Bf of 10 nM but the direct bilirubin measurement yields a non-zero value of about 0.5 mg/dl (FIG. 7). With increasing concentrations of ditaurobilirubin UBCheck is unchanged but Arrows increases starting at about 0.5 mg/dl of ditaurobilirubin and then increases rapidly until 4 mg/dl ditaurobilirubin where the Arrow's assay saturates at Bf ≥50 nM. In contrast, the UBCheck only begins to increase at 4 mg/dl ditaurobilirubin where its Bf increase to about 12 nM, a 20% increase from the initial 10 nM level, and only at 20 mg/dl ditaurobilirubin does Bf increase to 33 nM.

[5] = Effect of hemoglobin/hemolysate on UBCheck Bf measurement; design: species or system human; details: bilirubin spiked neonatal serum; hemoglobin concentrations at least as high as 4 g/l; cartridges with Hb blocking peptide
Description: After the Bf responder and non-responder probes are applied to the Ni-polystyrene beads, the peptide of Table 4 is added to the beads and is attached through double HIS tags to the bead's Ni-NTAs. The combined probes plus peptide beads are then spotted onto cartridges. The effect of whole blood hemolysate was tested by titrating bilirubin spiked neonatal serum with increasing hemoglobin concentrations.

[6] = Stability of non-responder probe 700/819 nm emission ratio in storage; assay type: physicochemical; details: at 1 and 6 days; absence of 700DX-maleimide
Source text: All responder probes labeled with LICOR 700DX-maleimide and non-responder probes labeled with LICOR 800CW-maleimide probes in Tables 1 and 2, respectively have qualitatively similar dependencies on Bf. The probes differ mostly in protein expression, binding parameters (Kd, Ro and Rm) and stability. […] Although the non-responders are not characterized by bilirubin binding parameters, the emission spectrum of the 800CW-maleimide is sensitive to specific substitutions that can alter the LICOR 700DX-maleimide intensities. […] In some of these mutants the ratio of 700 to 819 nm increased from about 1% to 20% while in storage at 4° C. With suitable mutations this instability was eliminated.

[7] = Fluorescence intensities of Bf sensor with increasing total bilirubin (FIG. 1); assay type: binding; details: increasing BT; 675 nm excitation; probe 10 nM, free in aqueous buffer
Description: FIG. 1 depicts the intensities and ratios of intensities for a Bf sensor composed of the bilirubin responsive LICOR 700DX maleimide Mut:SEQ ID NO:2-76C probe (Table 1) and the bilirubin non-responder LICOR 800CW maleimide Mut:SEQ ID NO:1 B-73C probe (Table 2), both free in aqueous buffer, with increasing BT (total bilirubin) which at the concentrations used is primarily unbound bilirubin (Bf). Measurements of the 710 and 805 nm intensities at 675 nm excitation were performed at the probe concentrations of 1.5 nM and 10 nM, respectively in a Horiba Fluorolog 2.

T1 sequence (P02768 25-609): as above

Cc1nnc(SCC2=C(C(=O)O)N3C(=O)[C@@H](NC(=O)Cn4cnnn4)[C@H]3SC2)s1 [Cefazolin]
Bf larger in the UBCheck than Arrows [1]: ~5 fold

CC(=O)S[C@@H]1CC2=CC(=O)CC[C@]2(C)[C@H]2CC[C@@]3(C)[C@@H](CC[C@@]34CCC(=O)O4)[C@H]12 [Spironolactone]
Displacement or Interference [2]: −98%

C=CC1=C(C)/C(=C/c2[nH]c(Cc3[nH]c(/C=C4\NC(=O)C(C)=C4C=C)c(C)c3CCC(=O)O)c(CCC(=O)O)c2C)NC1=O [bilirubin]
Kd [3]: ~20 nM

ditaurobilirubin
Bf (assay saturates) ([4]; Arrows UA-2, samples diluted 52-fold, 4 mg/dl ditaurobilirubin): ≥ 50 nM | increase of Bf from the initial 10 nM level ([4]; UBCheck, 4 mg/dl ditaurobilirubin): 20% | Bf ([4]; UBCheck, 4 mg/dl ditaurobilirubin, neonatal serum spiked to Bf of approximately 10 nM): about 12 nM | Bf ([4]; UBCheck, 20 mg/dl ditaurobilirubin): 33 nM

hemoglobin
Bf concentration relative to zero hemoglobin [5]: unaffected

B1: Mut:SEQ ID NO:1 B-73C: non-responder rat FABP mutein 20R 27A 29R 72A 73C 74F 100R 126W 131D-C2XH11 labeled with LICOR 800CW-maleimide (protein)
chain: AFDGTWKVDRNENYEKFMERMGINVVARRLGAHDNLKLTITQEGNKFTVKESSNFRNIDVVFELGVDFAYSACFGTELTGTWTMEGNKLVGKFKRVDNGRELIAVREISGNELIQTYTYEGVEAKWIFKKDRGAASHHHHHHSHRATPNTSPHHHHHHH
modifications: LICOR 800CW-maleimide label; nonresponder mutated probe
notes: non-responder rat FABP mutein 20R 27A 29R 72A 73C 74F 100R 126W 131D-C2XH11 labeled with LICOR 800CW-maleimide
700/819 ratio [6]: 1% | intensity change (cv) of LICOR 800CW maleimide measured at 805 nm [7]: 2.5%
